Source: the supplement of paper PMC11451515

Test system: NOMO1
Experiment: cell viability relative to DMSO control; higher = less cytotoxic
Details: 48 h
Summary of the method: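 Viability is a per-plate percentage relative to DMSO wells, with cell-free wells as background. CellTiter-Glo One luminescence was read after 48 h at 37°C on 1536-well plates (5 μl) of NOMO1 or SEM (500 cells/well) or P12-Ichikawa (1000 cells/well) leukemia cells. The cells had been adapted for at least four passages in each medium and pin-dosed with library compounds in DMSO from 47 μM to 0.79 nM in 11 threefold steps.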

[1] = RPMI 5 mM glucose + 10% FBS, 0.000781 µM
[2] = RPMI 5 mM glucose + 10% FBS, 0.00234 µM
[3] = RPMI 5 mM glucose + 10% FBS, 0.00702 µM
[4] = RPMI 5 mM glucose + 10% FBS, 0.0211 µM
[5] = RPMI 5 mM glucose + 10% FBS, 0.0632 µM
[6] = RPMI 5 mM glucose + 10% FBS, 0.19 µM
[7] = RPMI 5 mM glucose + 10% FBS, 0.569 µM
[8] = RPMI 5 mM glucose + 10% FBS, 1.71 µM
[9] = RPMI 5 mM glucose + 10% FBS, 5.12 µM
[10] = RPMI 5 mM glucose + 10% FBS, 15.4 µM
[11] = RPMI 5 mM glucose + 10% FBS, 46.1 µM

Cc1n[nH]c2ccc(-c3cncc(OC[C@@H](N)Cc4ccccc4)c3)cc12
cell viability [1]: 127%
cell viability [2]: 118%
cell viability [3]: 113%
cell viability [4]: 125%
cell viability [5]: 120%
cell viability [6]: 113%
cell viability [7]: 110%
cell viability [8]: 99.7%
cell viability [9]: 23.6%
cell viability [10]: 12.9%
cell viability [11]: 5.8%
cell viability (RPMI 5 mM glucose + 10% dialyzed FBS, 0.000781 µM): 134%
cell viability (RPMI 5 mM glucose + 10% dialyzed FBS, 0.00234 µM): 124%
cell viability (RPMI 5 mM glucose + 10% dialyzed FBS, 0.00702 µM): 120%
cell viability (RPMI 5 mM glucose + 10% dialyzed FBS, 0.0211 µM): 114%
cell viability (RPMI 5 mM glucose + 10% dialyzed FBS, 0.0632 µM): 133%
cell viability (RPMI 5 mM glucose + 10% dialyzed FBS, 0.19 µM): 83.5%
cell viability (RPMI 5 mM glucose + 10% dialyzed FBS, 0.569 µM): 109%
cell viability (RPMI 5 mM glucose + 10% dialyzed FBS, 1.71 µM): 77.9%
cell viability (RPMI 5 mM glucose + 10% dialyzed FBS, 5.12 µM): 15.1%
cell viability (RPMI 5 mM glucose + 10% dialyzed FBS, 15.4 µM): 8.65%
cell viability (RPMI 5 mM glucose + 10% dialyzed FBS, 46.1 µM): 4.35%

CC(C)[C@H](C(=O)Nc1ccc(C(=O)NO)cc1)c1ccccc1
cell viability [1]: 113%
cell viability [2]: 108%
cell viability [3]: 122%
cell viability [4]: 138%
cell viability [5]: 119%
cell viability [6]: 131%
cell viability [7]: 125%
cell viability [8]: 118%
cell viability [9]: 19%
cell viability [10]: 8.3%
cell viability [11]: 8.21%
